Active and inactive are the calls of the source. No rule for the calls is given here.
Test system: rodent carcinogenicity bioassays, tumor incidence
Assay: CCRIS carcinogenicity studies
Summary of the method: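 Archive of carcinogenicity, mutagenicity, tumor promotion and tumor inhibition results drawn from journals, NCI reports and other sources, expert-reviewed; covers 1985-2011 and is no longer updated.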

O=NO
carcinogen call (Species: MOUSE, Strain/Sex: B6C3F1/FEMALE, Route: ORAL, Dose: 0, 30.7, 310 MG/D IN DRINKING WATER FOR LIFE ADMINISTERED TO MICE OF MOTHERS EXPOSED TO SAME DOSES THROUGH PREGNANCY AND, Dose: 0, 30.7, 310 MG/D IN DRINKING WATER FOR LIFE ADMINISTERED TO MICE OF MOTHERS EXPOSED TO SAME DOSES THROUGH PREGNANCY AND): inactive; negative
carcinogen call (Species: MOUSE, Strain/Sex: B6C3F1/FEMALE, Route: ORAL, Dose: 0, 750, 1500, 3000 PPM IN DRINKING WATER FOR 104-105 WK (STUDY DURATION: 104-105 WK), Dose: 0, 750, 1500, 3000 PPM IN DRINKING WATER FOR 104-105 WK (STUDY DURATION: 104-105 WK), Tumor Site: Type of Lesion: FORESTOMACH: SQUAMOUS CELL PAPILLOMA OR CARCINOMA): equivocal
carcinogen call (Species: MOUSE, Strain/Sex: B6C3F1/MALE, Route: ORAL, Dose: 0, 30.7, 310 MG/D IN DRINKING WATER FOR LIFE ADMINISTERED TO MICE OF MOTHERS EXPOSED TO SAME DOSES THROUGH PREGNANCY AND, Dose: 0, 30.7, 310 MG/D IN DRINKING WATER FOR LIFE ADMINISTERED TO MICE OF MOTHERS EXPOSED TO SAME DOSES THROUGH PREGNANCY AND): inactive; negative
carcinogen call (Species: MOUSE, Strain/Sex: B6C3F1/MALE, Route: ORAL, Dose: 0, 750, 1,500, 3,000 PPM IN DRINKING WATER FOR 104-105 WK (STUDY DURATION: 104-105 WK), Dose: 0, 750, 1,500, 3,000 PPM IN DRINKING WATER FOR 104-105 WK (STUDY DURATION: 104-105 WK)): inactive; negative
carcinogen call (Species: MOUSE, Strain/Sex: C57BL/FEMALE, Route: ORAL, Dose: 0, 30.7, 310 MG/D IN DRINKING WATER BEGINNING AT 7-8 WK OF AGE AND CONTINUING FOR STUDY DURATION (STUDY DURATION: LIFE S, Dose: 0, 30.7, 310 MG/D IN DRINKING WATER BEGINNING AT 7-8 WK OF AGE AND CONTINUING FOR STUDY DURATION (STUDY DURATION: LIFE S): inactive; negative
carcinogen call (Species: MOUSE, Strain/Sex: VM/FEMALE, Route: ORAL, Dose: 0, 0.2% IN DRINKING WATER BEGINNING AT WEANING AND CONTINUING FOR DURATION STUDY (STUDY DURATION: LIFETIME)): inactive; negative
carcinogen call (Species: MOUSE, Strain/Sex: VM/FEMALE, Route: ORAL, Dose: 0, 0.2% IN DRINKING WATER BEGINNING IN UTERO AND CONTINUING FOR DURATION OF STUDY (STUDY DURATION: LIFETIME)): inactive; negative
carcinogen call (Species: MOUSE, Strain/Sex: VM/MALE, Route: ORAL, Dose: 0, 0.2% IN DRINKING WATER BEGINNING AT WEANING AND CONTINUING FOR DURATION OF STUDY (STUDY DURATION: LIFETIME)): inactive; negative
carcinogen call (Species: MOUSE, Strain/Sex: VM/MALE, Route: ORAL, Dose: 0, 0.2% IN DRINKING WATER BEGINNING IN UTERO AND CONTINUING FOR DURATION OF STUDY (STUDY DURATION: LIFETIME)): inactive; negative
carcinogen call (Species: RAT, Strain/Sex: F344/FEMALE, Route: ORAL, Dose: 0, 750, 1,500, 3,000 PPM IN DRINKING WATER FOR 105 WK (STUDY DURATION: 105 WK), Dose: 0, 750, 1,500, 3,000 PPM IN DRINKING WATER FOR 105 WK (STUDY DURATION: 105 WK)): inactive; negative
carcinogen call (Species: RAT, Strain/Sex: F344/MALE,FEMALE, Route: ORAL, Dose: 0.125, 0.25% IN DRINKING WATER FOR 2 YR): inactive; negative
carcinogen call (Species: RAT, Strain/Sex: F344/MALE, Route: ORAL, Dose: 0, 0.2, 0.5% IN DIET FOR 115 WK (STUDY DURATION: 115 WK), Dose: 0, 0.2, 0.5% IN DIET FOR 115 WK (STUDY DURATION: 115 WK)): inactive; negative
carcinogen call (Species: RAT, Strain/Sex: F344/MALE, Route: ORAL, Dose: 0, 750, 1,500, 3,000 PPM IN DRINKING WATER FOR 105 WK (STUDY DURATION: 105 WK), Dose: 0, 750, 1,500, 3,000 PPM IN DRINKING WATER FOR 105 WK (STUDY DURATION: 105 WK)): inactive; negative

CCOP(=S)(OCC)Oc1nc(Cl)n(C(C)C)n1
carcinogen call (Species: Mouse, Strain/Sex: Crl:CD-1(ICR)BR/Female (60/Group), Route: Oral, Dose: 0, 0.3, 1.0, 30, 300 ppm of 94.9% of isazophos in diet for 18 mo, study duration 18 mo, Dose: 0, 0.3, 1.0, 30, 300 ppm of 94.9% of isazophos in diet for 18 mo, study duration 18 mo): inactive; negative
carcinogen call (Species: Mouse, Strain/Sex: Crl:CD-1(ICR)BR/Male (60/Group), Route: Oral, Dose: 0, 0.3, 1.0, 30, 300 ppm (reduced to 250 at wk 23) ppm of 94.9% of isazophos in diet for 18 mo, study duration 18 mo, Dose: 0, 0.3, 1.0, 30, 300 ppm (reduced to 250 at wk 23) ppm of 94.9% of isazophos in diet for 18 mo, study duration 18 mo): inactive; negative
carcinogen call (Species: Rat, Strain/Sex: Crl:CD(SD)BR/Female (60/Group), Route: Oral, Dose: 0, 0.1, 1.0, 300 reduced to 250 at wk 22 and then to 200 ppm at wk 66 of 94.9% of isazophos in diet for 24 mo, study dur, Dose: 0, 0.1, 1.0, 300 reduced to 250 at wk 22 and then to 200 ppm at wk 66 of 94.9% of isazophos in diet for 24 mo, study dur): inactive; negative
carcinogen call (Species: Rat, Strain/Sex: Crl:CD(SD)BR/Male (60/Group), Route: Oral, Dose: 0, 0.1, 1.0, 300 ppm of 94.9% of isazophos in diet for 24 mo, study duration 24 mo, Dose: 0, 0.1, 1.0, 300 ppm of 94.9% of isazophos in diet for 24 mo, study duration 24 mo): inactive; negative

N#CCNC(=O)c1cnccc1C(F)(F)F
carcinogen call (Species: Mouse, Strain/Sex: Crl:CD-1(ICR)BR VAF/Plus / Female (60/Group), Route: Oral, Dose: 0, 250, 750, 2250 ppm (0; 38; 112; 334 mg/kg/day) in diet for 18 mo, study duration 18 mo, Dose: 0, 250, 750, 2250 ppm (0; 38; 112; 334 mg/kg/day) in diet for 18 mo, study duration 18 mo, Tumor Site: Type of Lesion: Lung: alveolar/bronchiolar adenomas and carcinomas): active; positive
carcinogen call (Species: Mouse, Strain/Sex: Crl:CD-1(ICR)BR VAF/Plus / Male (60/Group), Route: Oral, Dose: 0, 250, 750, 2250 ppm (0; 29; 88; 261 mg/kg/day) in diet for 18 mo, study duration 18 mo, Dose: 0, 250, 750, 2250 ppm (0; 29; 88; 261 mg/kg/day) in diet for 18 mo, study duration 18 mo, Tumor Site: Type of Lesion: Lung: alveolar/bronchiolar adenomas and carcinomas): active; positive
carcinogen call (Species: Rat, Strain/Sex: Wistar (Jcl:Wistar)/Female (52/Group), Route: Oral, Dose: 0, 200, 1000, 5000 ppm (0; 8.92; 44.1; 219 mg/kg/day) in diet for 2 yr, study duration 2 yr, Dose: 0, 200, 1000, 5000 ppm (0; 8.92; 44.1; 219 mg/kg/day) in diet for 2 yr, study duration 2 yr): inactive; negative
carcinogen call (Species: Rat, Strain/Sex: Wistar (Jcl:Wistar)/Male (52/Group), Route: Oral, Dose: 0, 50, 100, 200, 1000 ppm (0; 1.84; 3.68; 7.32; 36.5 mg/kg/day) in diet for 2 yr, study duration 2 yr, Dose: 0, 50, 100, 200, 1000 ppm (0; 1.84; 3.68; 7.32; 36.5 mg/kg/day) in diet for 2 yr, study duration 2 yr): inactive; negative

CC1CN(N=O)CC(C)N1C(=O)c1ccccc1 (configuration not stated)
carcinogen call (Species: RAT, Strain/Sex: F344/FEMALE, Route: ORAL, Dose: 0, 172 MG/L IN DRINKING WATER 5 D/WK FOR 50 WK, STUDY DURATION: 120-130 WK, Dose: 0, 172 MG/L IN DRINKING WATER 5 D/WK FOR 50 WK, STUDY DURATION: 120-130 WK, Tumor Site: Type of Lesion: FORESTOMACH: PAPILLOMA OR CARCINOMA): active; positive

CN(N=O)C(=O)Oc1cccc2ccccc12
carcinogen call (Species: MOUSE, Strain/Sex: CFLP/FEMALE, Route: DERMAL, Dose: 0, 12.5, 50, 200 UG IN ACETONE 2 D/WK FOR 104 WK (STUDY DURATION: 24 MO), Dose: 0, 12.5, 50, 200 UG IN ACETONE 2 D/WK FOR 104 WK (STUDY DURATION: 24 MO), Tumor Site: Type of Lesion: SKIN: CARCINOMA): active; positive

O=NN(CCO)C(=O)NCCCl
carcinogen call (Species: RAT, Strain/Sex: F344/FEMALE, Route: ORAL, Dose: 0, 42 MG/L IN DRINKING WATER 5 D/WK FOR 30 WK (STUDY DURATION: LIFETIME), Tumor Site: Type of Lesion: LIVER: TUMOR, UTERUS: TUMOR, SKIN: TUMOR, Tumor Site: Type of Lesion: LIVER: TUMOR, UTERUS: TUMOR, SKIN: TUMOR): active; positive
carcinogen call (Species: RAT, Strain/Sex: F344/MALE, Route: ORAL, Dose: 0, 42 MG/L IN DRINKING WATER 5 D/WK FOR 30 WK (STUDY DURATION: LIFETIME), Tumor Site: Type of Lesion: LIVER: TUMOR, LUNG: TUMOR, MESOTHELIUM: TUMOR, SKIN: TUMOR, Tumor Site: Type of Lesion: LIVER: TUMOR, LUNG: TUMOR, MESOTHELIUM: TUMOR, SKIN: TUMOR): active; positive

NNCCc1ccccc1
carcinogen call (Species: MOUSE, Strain/Sex: SWISS/MALE, Route: ORAL, Dose: 0, 0.15% IN WATER, Tumor Site: Type of Lesion: BLOOD VESSELS: ANGIOMA, ANGIOSARCOMA, LUNG: ADENOMA, ADENOCARCINOMA): active; positive
carcinogen call (Species: RAT, Strain/Sex: SPRAGUE-DAWLEY/MALE, Route: ORAL, Dose: 0, 0.02% IN DIET FOR 68-87 WK (STUDY DURATION: 87 WK)): inactive; negative
